A short description of data set [1]: Inhibition of Severe acute respiratory syndrome coronavirus 3CL protease. Also noted: species or system Severe acute respiratory syndrome-related coronavirus.
A further data set has as its system Ebolavirus. Put plainly: Antiviral activity against Ebolavirus infected in African green monkey Vero E6 cells. Type of data set: functional, organism-based. As to conditions: Orthoebolavirus, Vero C1008.
Data set [2] is described as follows: Cytotoxicity against African green monkey Vero E6 cells assessed as cell growth inhibition incubated for 48 hrs by CCK8 assay. Format: toxicity, cell-based, Vero C1008. The following applies: chlorocebus sabaeus. For orientation: Tetrazolium assays rely on reduction of a dye to a coloured formazan, in cell work by metabolically active cells.
Data set [3] is described as follows: Selectivity ratio of CC50 for African green monkey Vero E6 cells to EC50 for Severe acute respiratory syndrome coronavirus infected in African green monkey Vero E6 cells. Type of data set: toxicity, Vero C1008. As to conditions: read-out: Ratio CC50/EC50.
Data set [4] is described as follows: Cytotoxicity against African green monkey Vero E6 cells assessed as cell growth inhibition incubated for 24 hrs by CCK8 assay. Format: toxicity, cell-based, Vero C1008. The following applies: chlorocebus sabaeus.
Data set [5] can be described thus: Selectivity ratio of CC50 for African green monkey Vero E6 cells to EC50 for Severe acute respiratory syndrome coronavirus […]. Format: toxicity, Vero C1008. The following applies: read-out: Ratio CC50/EC50.
Data set [6] concerns SARS-CoV. The data set is described as follows: Antiviral activity against Severe acute respiratory syndrome coronavirus infected in African green monkey Vero E6 cells. Format: functional, organism-based. As to conditions: Severe acute respiratory syndrome-related coronavirus, Vero C1008.
In data set [7] the test system is SARS-CoV-2. Put plainly: Antiviral activity against Severe acute respiratory syndrome coronavirus 2 infected in African green monkey Vero cells incubated for 24 to 48 hrs. Type of data set: functional, organism-based. As to conditions: Severe acute respiratory syndrome coronavirus 2, Vero.
Data set [8] concerns SARS-CoV-2. Put plainly: Antiviral activity against Severe acute respiratory syndrome coronavirus 2 incubated for 48 hrs by TCID50 assay. Format: functional, organism-based. The following applies: Severe acute respiratory syndrome coronavirus 2, 48 h.
Data set [9] is described as follows: Cytotoxicity against African green monkey Vero E6 cells assessed as cell growth inhibition incubated for 48 hrs. Format: toxicity, cell-based, Vero C1008. As to conditions: chlorocebus sabaeus.
In data set [10] the test system is SARS-CoV-2. The data set is described as follows: Antiviral activity against Severe acute respiratory syndrome coronavirus 2. Type of data set: functional, organism-based.
For data set [11], the system named is SARS-CoV. The data set is described as follows: Antiviral activity against Severe acute respiratory syndrome coronavirus. Format: functional, organism-based. The following applies: Severe acute respiratory syndrome-related coronavirus.
Data set [12] is described as follows: Inhibition of Severe acute respiratory syndrome coronavirus CYP3A4. Type of data set: ADME, Severe acute respiratory syndrome-related coronavirus.
Data set [13] has as its system West Nile virus. Put plainly: Antiviral activity against West Nile virus Eg101 infected in african green monkey Vero cells. Type of data set: functional, organism-based.
For data set [14], the system named is Tick-borne encephalitis virus. The data set is described as follows: Antiviral activity against Tick-borne encephalitis virus Hypr infected in african green monkey Vero cells. Type of data set: functional, organism-based.
The subject of data set [15] is West Nile virus. The data set is described as follows: Antiviral activity against West Nile virus 13-104 infected in african green monkey Vero cells. Type of data set: functional, organism-based. The following applies: 13-104, Vero.
Data set [16] concerns Zika virus. The data set is described as follows: Antiviral activity against Zika virus MR-766 infected in african green monkey Vero cells. As to conditions: MR-766, Vero. Type of data set: functional, organism-based.
Data set [17] relates to Zika virus. The data set is described as follows: Antiviral activity against Zika virus Paraiba-01 infected in african green monkey Vero cells. Format: functional, organism-based. The following applies: Paraiba-01, Vero.

Molecules are shown by their SMILES. In brackets after ≈: the same amount, converted by molar mass.

Consider `Cc1cc(C(=O)N[C@@H](C)C(=O)N[C@H](C(=O)N[C@@H](CC(C)C)C(=O)N[C@H](/C=C/C(=O)OCc2ccccc2)C[C@@H]2CCNC2=O)C(C)C)no1`, for which, in [1], the EC50 (in general, the concentration at which the effect is half-maximal) worked out at 16.8 µM.

For `NC(=O)c1nc(F)cnc1O`, the 50% effective concentration (EC50) in the data set with Ebolavirus is 10.5 µg/mL (≈ 66.8 µM). For the same molecule, the CC50 – broadly, the concentration at which the toxic effect on the cells reaches its halfway point – at 48 h in data set [2] is > 400 µM. In addition, the selectivity ratio in [3] is > 6.46.

For `O=C[C@H](C[C@@H]1CCNC1=O)NC(=O)[C@H](Cc1cccc(F)c1)NC(=O)c1cc2ccccc2[nH]1`, in [4], the CC50 at 24 h was > 100 µM. In addition, the selectivity ratio in [5] is > 139.

Take `O=C[C@H](C[C@@H]1CCNC1=O)NC(=O)[C@H](CC1CCCCC1)NC(=O)c1cc2ccccc2[nH]1`: the CC50 at 24 h in [4] was > 100 µM.

As for `CC(C)(C)OC(=O)Nc1cccn([C@@H](CC2CC2)C(=O)N[C@H](CC(=O)NCc2ccccc2)C[C@@H]2CCNC2=O)c1=O`, the concentration for a half-maximal effect (EC50) in [1] was 4 µM.

Regarding `CCN(CC)CCCC(C)Nc1ccnc2cc(Cl)ccc12` (configuration not stated) [CHLOROQUINE], the EC50 in the data set on SARS-CoV [6] was 1.13 µM. Further, in data set [2], the half-maximal cytotoxic concentration (CC50) at 48 h is > 100 µM. The selectivity ratio in [3] was > 88.5.

`CCN(CCO)CCCC(C)Nc1ccnc2cc(Cl)ccc12` (configuration not stated) [HYDROXYCHLOROQUINE]: the EC50 in the data set with SARS-CoV-2 [7] came out at 0.72 µM.

In turn, `Cc1cccc(C)c1OCC(=O)N[C@@H](Cc1ccccc1)[C@@H](O)C[C@H](Cc1ccccc1)NC(=O)[C@H](C(C)C)N1CCCNC1=O` [LOPINAVIR] yielded a half-maximal effective concentration (EC50) with SARS-CoV-2 [8] of 26.1 µM.

With `CCOC(=O)C1=C[C@@H](OC(CC)CC)[C@H](NC(C)=O)[C@@H](N)C1` [OSELTAMIVIR], the CC50 at 48 h in [9] was > 100 µM. In the data set on SARS-CoV-2 [10], the EC50 is > 100 µM.

With `NC(=O)c1ncn([C@@H]2O[C@H](CO)[C@@H](O)[C@H]2O)n1` [RIBAVIRIN], in the data set with SARS-CoV [11], the EC50 is > 100 µM.

For `CC(C)c1nc(CN(C)C(=O)N[C@H](C(=O)N[C@@H](Cc2ccccc2)C[C@H](O)[C@H](Cc2ccccc2)NC(=O)OCc2cncs2)C(C)C)cs1` [RITONAVIR], the EC50 in [12] was > 100 µM.

On to `CCOC(=O)c1c(CSc2ccccc2)n(C)c2cc(Br)c(O)c(CN(C)C)c12` [UMIFENOVIR], for which the concentration giving a half-maximal response (EC50) (in the data set on West Nile virus [13]; in data set [14]; in the data set on West Nile virus [15]; in the data set on Zika virus [16]; in the data set on Zika virus [17]) was 10.6 µM throughout.

The values are drawn from ChEMBL document CHEMBL5244254, “Potential treatment methods targeting 2019-nCoV infection” (Eur J Med Chem, 2020).
